Laboratory results as given in patent US6537783B1, “Prefunctionalized nucleotide and process for amplifying a sequence using a prefunctionalized nucleotide” (Bio Merieux, priority 1996, dated 2003).

How the values were obtained:
[1] = test system: Mycobacterium tuberculosis 16S RNA; test: Incorporation yield of the nucleotide in the TMA amplification products (HPLC of digested amplicons; fluorescence for fluorescein-UTP); assay type: biochemical; conditions: 10^6 copies target, total 4 mM
Procedure: The incorporation of the prefunctionalized nucleotides 27a, 27b and 32, and, by way of comparison, Boerhinger's labeled nucleotide ref. 1 427 857, into the products of the TMA amplification reaction is tested using Gen-Probe amplified™ MTD2 (amplified Mycobacterium tuberculosis direct test) kits. This reaction amplifies a 136-base fragment of the mycobacterial 16S RNA. It uses four enzymic activities (DNA-dependent RNA polymerase, DNA-dependent DNA polymerase, RNA-dependent DNA polymerase and ribonuclease H) and two enzymes, T7 RNA polymerase and AMV reverse transcriptase. By means of recurrent reactions involving steps of transcription, reverse transcription and digestion of the RNA contained in the DNA:RNA double strands, which steps resemble an RNA virus replication cycle, this reaction enables a nucleic acid sequence which is recognized by two primers (a simple primer and a primer containing the T7 RNA polymerase promoter) to be amplified specifically. The amplification factor is very substantial ([…]) and the sensitivity is very good (from 1 to 10 copies). 90% of the resulting products consist of single-stranded RNAs and 10% consist of double-stranded DNAs.
Amplification reactions are carried out using 10^6 copies of Mycobacterium tuberculosis 16S RNA. This target RNA is previously obtained and quantified by means of the following method: the 16S RNA gene is cloned into a plasmid under the control of a promoter. The 16S RNA is then obtained by in vitro transcription. This RNA is purified by extraction with phenol/chloroform and filtration through microcon 30™ (Amicon). It is assayed by its absorption at 260 nm.
The standard TMA reactions contain 4 mM of each of the natural rNTPs (ATP, CTP, GTP and UTP). For the purpose of incorporating the prefunctionalized nucleotides into the amplification products, the reaction is performed while including one of these modified nucleotides in the reaction buffer. The reaction is studied in the presence of different ratios between the concentrations of the modified nucleotide and the natural nucleotide, while at the same time ensuring that the total concentration of each nucleotide of the same series, whether modified or natural, is 4 mM. The ratios studied are 0%, 10%, 30%, 50% and 70% (except in the case of the fluorescein-UTP, which it was not possible to test at 70%). A negative control is carried out, with this negative control consisting of a reaction which comprises all the reagents, including the highest ratio of modified nucleotides employed (70 or 50%), apart from the enzymes (which are replaced by the buffer used for redissolving the lyophilized enzymes).
The ratio between the incorporated prefunctionalized nucleotide and the analogous natural nucleotide is determined in order to assess the prefunctionalization of the amplicons obtained in the presence of the prefunctionalized nucleotides 27a (CTP-(N4)-C6O2—NH2) and 27b (CTP-(N4)-C4—NH2) and, by way of comparison, in the presence of the labeled nucleotide fluorescein-12-UTP (Boerhinger, ref. 1 427 857).
The amplification products obtained on carrying out Example 22 are separated from the nucleotides which are in excess in the reaction by means of filtration through Microcon 30™ (from Amicon) and dissolved in 50 μl of water. In the case of the amplification in the presence of fluorescein-12-UTP, the purification is carried out on sephadex G50 (the fluorescein is absorbed on Microcon).
The absorption of the amplification products at 260 nm is then determined (the control without enzyme should have a very low concentration).
In the case of the amplification reactions which include the prefunctionalized nucleotides (and their controls), a step of digesting the nucleic acids down to the nucleoside stage is then carried out:
5 10^14 amplification product copies (approximately 35 μg) are diluted in a final volume of 86 μl of water (in the case of the control without enzyme, a volume is used which is equal to the largest sample […] volume). […]

[2] = test system: Mycobacterium tuberculosis 16S RNA; test: Impact of incorporation of prefunctionalized nucleotides on TMA sensitivity (ELOSA, electrophoresis, Northern blotting); assay type: biochemical; conditions: for sensitivity of the TMA reaction: 10,000 to 10 target copies, ratios 100% to 0%, at a determinable concentration of prefunctionalized nucleotide
Source text: In the abovementioned FIGS. 4 and 5, the number of copies of the target per reaction are given on the x axis and the number of amplicons obtained per microliter of reaction (final reaction volume=100 microliters) are given on the y axis. Specific symbols, for example ▪, □, ▴, ◯, ●, and a percentage, are assigned to the curves in FIGS. 4 and 5. This percentage corresponds to the percentage of the prefunctionalized nucleotide(s) as compared with the natural nucleotides in the TMA amplification reaction. FIGS. 4 and 5 show, respectively, the results of the semiquantification, by means of the ELOSA technique (described in Patent Application PCT WO 92/19812), of the number of amplicons produced from a target range of Mycobacterium tuberculosis 16S RNA in the presence of different ratios of 27a and 27b nucleotides as compared with their respective natural nucleotides.
In order to study the sensitivity of TMA which includes incorporation of prefunctionalized nucleotides, the TMA was performed using decreasing quantities of the target (Mycobacterium tuberculosis 16S RNA, described in Example 22) (10,000, 1000, 100, 10 and 0 copies) in the presence of different ratios between the prefunctionalized nucleotide and its natural analog (100%, 70%, 50%, 30%, 10% and 0%). The same prefunctionalized nucleotides are tested, i.e. 27a (CTP-(N4)-C6O2—NH2) and 27b (CTP-(N4)-C4—NH2).
The reaction products are studied, inter alia, by the method described in Example 22.
The reaction products are also analyzed in a semi-quantitative manner by means of ELOSA (PCT WO 92/19812) and comparison of the intensity of the signals with those of standard ranges.
The reactions which are performed in the presence of (a) prefunctionalized nucleotide(s) are analyzed by electrophoresis and staining, Northern blotting and ELOSA.

[3] = [Prefunctionalized nucl.]/[natural nucl.] in reaction 30%
[4] = [Prefunctionalized nucl.]/[natural nucl.] in reaction 50%
[5] = [Prefunctionalized nucl.]/[natural nucl.] in reaction 70%
[6] = [Prefunctionalized nucl.]/[natural nucl.] in reaction 10%

Row | Substance | incorporation yield: incorporated modified nucleotide / natural nucleotide in TMA amplification products [1, 3] | incorporation yield: incorporated modified nucleotide / natural nucleotide in TMA amplification products [1, 4] | incorporation yield: incorporated modified nucleotide / natural nucleotide in TMA amplification products [1, 5] | sensitivity of the TMA reaction [2] | ability to replace the natural nucleotide in TMA ([2]; FIG. 5, ELOSA) | incorporation yield: incorporated modified nucleotide / natural nucleotide in TMA amplification products [1, 6]
1 | CTP-(N4)-C4—NH2 [nucleotide 27b] | 1/48 | 1/15 | 1/6 | not significantly affected | able to replace the natural nucleotide | –
2 | CTP-(N4)-C6O2—NH2 [nucleotide 27a] | 1/9 | 1/5 | 1/3 | not significantly affected | – | 1/33
3 | fluorescein-12-UTP [reference compound] | 1/45 | 1/30 | – | – | – | 1/200
